These results are taken from ChEMBL document CHEMBL4177723, “Histone H3 peptides incorporating modified lysine residues as lysine-specific demethylase 1 inhibitors” (Bioorg Med Chem Lett, 2018).

Assay [1] has as its target T1, Amine oxidase [flavin-containing] A (Homo sapiens, UniProt P21397).
T1 sequence (P21397 whole entry): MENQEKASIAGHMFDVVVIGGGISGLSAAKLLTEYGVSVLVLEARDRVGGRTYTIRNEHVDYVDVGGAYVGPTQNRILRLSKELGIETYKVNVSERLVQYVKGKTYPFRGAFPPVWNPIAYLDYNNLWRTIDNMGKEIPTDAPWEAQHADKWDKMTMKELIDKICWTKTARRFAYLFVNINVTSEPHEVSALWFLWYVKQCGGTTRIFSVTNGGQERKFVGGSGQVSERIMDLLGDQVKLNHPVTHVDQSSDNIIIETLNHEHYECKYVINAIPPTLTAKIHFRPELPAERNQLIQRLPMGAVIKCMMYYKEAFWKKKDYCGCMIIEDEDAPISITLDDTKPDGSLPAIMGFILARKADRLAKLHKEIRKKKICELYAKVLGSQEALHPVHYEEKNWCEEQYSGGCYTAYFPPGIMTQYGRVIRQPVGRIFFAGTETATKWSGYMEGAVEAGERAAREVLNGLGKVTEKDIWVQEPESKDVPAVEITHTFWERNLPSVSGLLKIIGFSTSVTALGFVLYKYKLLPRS

The target of assay [2] is T2, Amine oxidase [flavin-containing] B (Homo sapiens, UniProt P27338).
T2 sequence (P27338 whole entry): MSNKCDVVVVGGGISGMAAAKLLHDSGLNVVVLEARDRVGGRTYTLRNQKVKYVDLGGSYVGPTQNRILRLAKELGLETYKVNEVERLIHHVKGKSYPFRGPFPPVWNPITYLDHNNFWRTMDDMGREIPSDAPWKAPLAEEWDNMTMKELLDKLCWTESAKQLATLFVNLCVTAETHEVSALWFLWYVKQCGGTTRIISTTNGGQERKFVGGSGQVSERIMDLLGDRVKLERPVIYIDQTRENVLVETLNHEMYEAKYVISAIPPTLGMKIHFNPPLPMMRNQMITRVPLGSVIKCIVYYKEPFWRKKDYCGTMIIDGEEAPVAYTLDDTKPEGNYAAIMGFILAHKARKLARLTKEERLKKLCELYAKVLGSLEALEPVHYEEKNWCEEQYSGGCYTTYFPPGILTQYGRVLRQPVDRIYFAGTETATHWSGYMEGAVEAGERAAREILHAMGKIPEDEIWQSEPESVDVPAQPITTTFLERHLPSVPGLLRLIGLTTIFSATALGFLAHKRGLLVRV

In assay [3] the target is Lysine-specific histone demethylase 1A (Homo sapiens, UniProt O60341).

Bounds are passed on as bounds.

As usually defined, the IC50 is the midpoint of a concentration-inhibition curve. Low values mean greater potency, high ones weaker potency. Turning to `C[C@H](N)C(=O)N[C@@H](CCCNC(=N)N)C(=O)N[C@H](C(=O)N[C@@H](CCCCN[C@@H]1C[C@H]1c1ccccc1)C(=O)N[C@@H](CCC(N)=O)C(=O)N[C@H](C(=O)N[C@@H](C)C(=O)N[C@@H](CCCNC(=N)N)C(=O)N[C@@H](CCCCN)C(=O)N[C@@H](CO)C(=O)N[C@H](C(=O)O)[C@@H](C)O)[C@@H](C)O)[C@@H](C)O`, the values for the IC50 in assay [1], in assay [2] and in assay [3] were above 10 µM, above 10 µM and 0.154 µM, respectively.
